Laboratory results taken from US6492370B1, “Urea derivatives and pharmaceutical compositions thereof” (Santen Pharmaceutical Co., Ltd., priority 1998, dated 2002).

Test system: TNF-α production induced by lipopolysaccharide (LPS) stimulation
Assay: In vivo test: TNF-α levels in plasma of LPS-administered rats
Parameters: species or system rat
Details: Rattus norvegicus, 2 h; female rats, oral administration of 50 mg/kg immediately after subcutaneous LPS, plasma two hours after LPS; read-out: Inhibition rate (%) (TNF-α production inhibition rates)
Method: (§1) Inhibitory effects on TNF-α production induced by lipopolysaccharide (LPS) stimulation were studied by in vitro or in vivo tests according to the method of McGeehan et al. (Nature, 370, […](1994)).
Female rats (five per group), body weight of about 200 g,about eight weeks old, were used as test animals. With respect to LPS to be used, LPS from Salmonella was dissolved in physiological saline (1 mg/ml). Test compounds were dissolved or uniformly suspended in a 1% aqueous methylcellulose solution.
The above-mentioned LPS solution (0.5 ml/kg) was subcutaneously administered to the rat. Immediately after the LPS administration, the test compound preparation liquid (5 ml/kg, containing 50 mg/kg test compound) was orally administered. Two hours after the LPS administration, blood was collected from abdominal aorta and was centrifuged at 4° C. and 3000 rpm for ten minutes. TNF-α levels in the obtained plasma were measured with a rat TNF-α-specific ELISA kit. TNF-α was not observed in the plasma with respect to an LPS-nonadministered group (control).
(§2) TNF-α production inhibition rates of the test compounds were determined by the following equation.
(§3) Inhibition rate (%)=[(A-B)/A]×100
A: TNF-α level in plasma of test compound-nonadministered group
B: TNF-α level in plasma of test compound-administered group

Q: Which inhibition in vivo at 50 mg/kg does the source give for `CSCCC(NC(=O)N(CCSC(C)=O)CCc1ccccc1)C(=O)N1CCN(C)CC1` (racemic) [Compound No. 27-4, 1-[(2RS)-2-[3-[2-(Acetylthio)ethyl]-3-phenethylureido]-4-(methylthio)butyryl]-4-methylpiperazine] here?
A: The inhibition in vivo at 50 mg/kg was 60.9%.

Q: Which inhibition in vivo at 50 mg/kg does the source give for `CC(=O)SCCN(CCC1CCCCC1)C(=O)N[C@@H](C)C(=O)N1CCN(C)CC1` [Compound No. 13-1, 1-[(2S)-2-[3-[2-(Acetylthio)ethyl]-3-(2-cyclohexylethyl)ureido]propionyl]-4-methylpiperazine] here?
A: Its inhibition in vivo at 50 mg/kg is 84.6%.

Q: With `CC(=O)SCCN(CCc1ccccc1)C(=O)N[C@H](C)C(=O)N1CCN(C)CC1` [Compound No. 13-3, 1-[(2R)-2-[3-[2-(Acetylthio)ethyl]-3-phenethylureido]propionyl]-4-methylpiperazine] as the compound, how does the inhibition in vivo at 50 mg/kg read?
A: Its inhibition in vivo at 50 mg/kg is 66.8%.

Q: With `CC(=O)SCCN(CCCc1ccccc1)C(=O)N[C@@H](C)C(=O)N1CCN(C)CC1` [Compound No. 13-12, 1-[(2S)-2-[3-[2-(Acetylthio)ethyl]-3-(3-phenylpropyl)ureido]propionyl]-4-methylpiperazine] as the compound, how does the inhibition in vivo at 50 mg/kg read?
A: Its inhibition in vivo at 50 mg/kg is 62.3%.

Q: For `CC(=O)SCCN(C(=O)N[C@@H](C)C(=O)N1CCN(C)CC1)c1ccccc1` [Compound No. 13-17, 1-[(2S)-2-[3-[2-(Acetylthio)ethyl]-3-phenylureido]propionyl]-4-methylpiperazine], which inhibition in vivo at 50 mg/kg is on record?
A: The inhibition in vivo at 50 mg/kg was 50.3%.

Q: With `CC(=O)SCCN(CCc1ccccc1)C(=O)NCC(=O)N1CCN(C)CC1` [Compound No. 13-20, 1-[2-[3-[2-(Acetylthio)ethyl]-3-phenethylureido]acetyl]-4-methylpiperazine] as the compound, how does the inhibition in vivo at 50 mg/kg read?
A: The inhibition in vivo at 50 mg/kg was 66.6%.

Q: For `CC(=O)SCCN(CCC1CCCCC1)C(=O)N[C@@H](C)C(=O)N1CCCCC1` [Compound No. 13-49, 1-[(2S)-2-[3-[2-(Acetylthio)ethyl]-3-(2-cyclohexylethyl)ureido]propionyl]piperidine], which inhibition in vivo at 50 mg/kg is on record?
A: Its inhibition in vivo at 50 mg/kg is 90%.

Q: For `CC(=O)SCCN(CCC1CCCCC1)C(=O)N[C@@H](C)C(=O)N1CCOCC1` [Compound No. 13-50, 4-[(2S)-2-[3-[2-(Acetylthio)ethyl]-3-(2-cyclohexylethyl)ureido]propionyl]morpholine], which inhibition in vivo at 50 mg/kg is on record?
A: The inhibition in vivo at 50 mg/kg was 93.5%.

Q: With `CC(=O)SCCN(CCC1CCCC1)C(=O)N[C@@H](C)C(=O)N1CCN(C)CC1` [Compound No. 13-57, 1-[(2S)-2-[3-[2-(Acetylthio)ethyl]-3-(2-cyclopentylethyl)ureido]propionyl]-4-methylpiperazine] as the compound, how does the inhibition in vivo at 50 mg/kg read?
A: Its inhibition in vivo at 50 mg/kg is 90.1%.

Q: With `CC(=O)SCCN(CCC1=CCCCC1)C(=O)N[C@@H](C)C(=O)N1CCN(C)CC1` [Compound No. 27-84, 1-[(2S)-2-[3-[2-(Acetylthio)ethyl]-3-[2-(1-cyclohexenyl)ethyl]ureido]propionyl]-4-methylpiperazine] as the compound, how does the inhibition in vivo at 50 mg/kg read?
A: The inhibition in vivo at 50 mg/kg was 56.7%.

Same assay, conditions: female rats, oral administration of 50 mg/kg immediately after subcutaneous LPS, plasma two hours after LPS

Q: With `CC(=O)SCCN(CCOc1ccccc1)C(=O)N[C@@H](C)C(=O)N1CCN(C)CC1` [Compound No. 13-16] as the compound, how does the “Inhibition rate (%) (TNF-α production inhibition rates)” value read?
A: The value was 54.1%.

Test system: not given
Assay: not given
Details: not given

Q: For `CC(=O)SCCN(CCc1ccccc1)C(=O)N[C@@H](Cc1ccccc1)C(=O)N1CCN(CC(=O)O)CC1` [Compound No. 13-32, 1-[(2S)-2-[3-[2-(Acetylthio)ethyl]-3-phenethylureido]-3-phenylpropionyl]-4-(carboxymethyl)piperazine], which melting point is on record?
A: The melting point was 230 °C (dec.).

Q: For `CC(=O)SCCN(CCc1ccccc1)C(=O)N[C@@H](Cc1ccc(-c2ccccc2)c([N+](=O)[O-])c1)C(=O)NCCN(C)C` [Compound No. 27-19, (2S)-2-[3-[2-(Acetylthio)ethyl]-3-phenethylureido]-N-[2-(dimethylamino)ethyl]-3-(2-nitro-4-biphenylyl)propionamide], which melting point is on record?
A: The melting point was 90 °C.

Q: For `CC(=O)SCCN(CCc1ccccc1)C(=O)N[C@@H](Cc1ccc([N+](=O)[O-])cc1)C(=O)NCCN1C(=O)c2ccccc2C1=O` [Compound No. 27-45, (2S)-2-[3-[2-(Acetylthio)ethyl]-3-phenethylureido]-3-(4-nitrophenyl)-N-[2-(phthalimido)ethyl]propionamide], which melting point is on record?
A: The melting point was 110 °C.

Q: For `CC(=O)SCCN(CCc1ccccc1)C(=O)N[C@@H](Cc1ccc([N+](=O)[O-])cc1)C(=O)NCCN(C)C1CCCCC1` [Compound No. 27-46, (2S)-2-[3-[2-(Acetylthio)ethyl]-3-phenethylureido]-N-[2-[(N-methyl)cyclohexylamino]ethyl]-3-(4-nitrophenyl)propionamide], which melting point is on record?
A: The melting point was 90 °C.

Q: For `CCN(CC)CCNC(=O)[C@H](Cc1ccc([N+](=O)[O-])cc1)NC(=O)N(CCSC(C)=O)CCc1ccccc1` [Compound No. 27-47, (2S)-2-[3-[2-(Acetylthio)ethyl]-3-phenethylureido]-N-[2-(diethylamino)ethyl]-3-(4-nitrophenyl)propionamide], which melting point is on record?
A: The melting point was 65 °C.

Q: For `CC(=O)SCCN(CCc1ccccc1)C(=O)N[C@@H](Cc1ccc([N+](=O)[O-])cc1)C(=O)NCCc1ccccn1` [Compound No. 27-50, (2S)-2-[3-[2-(Acetylthio)ethyl]-3-phenethylureido]-3-(4-nitrophenyl)-N-[2-(2-pyridyl)ethyl]propionamide], which melting point is on record?
A: The melting point was 106 to 112.5 °C.

Q: With `CC(=O)SCCN(CCc1ccccc1)C(=O)N[C@@H](Cc1ccc(F)cc1)C(=O)NCCN(C)C` [Compound No. 27-54, (2S)-2-[3-[2-(Acetylthio)ethyl]-3-phenethylureido]-N-[2-(dimethylamino)ethyl]-3-(4-fluorophenyl)propionamide] as the compound, how does the melting point read?
A: Its melting point is 90 °C.

Q: Which melting point does the source give for `CC(=O)Nc1ccc(C[C@H](NC(=O)N(CCSC(C)=O)CCc2ccccc2)C(=O)NCCN(C)C)cc1` [Compound No. 27-82, (2S)-3-[4-(Acetylamino)phenyl]-2-[3-[2-(acetylthio)ethyl]-3-phenethylureido]-N-[2-(dimethylamino)ethyl]propionamide] here?
A: Its melting point is 95 °C (dec.).

Test system: TNF-α production from human monocytic line THP-1 by LPS stimulation
Assay: In vitro test: TNF-α production from human monocytic line THP-1 by LPS stimulation
Format: cell-based
Details: 2 h; test compound 10^−5 M, THP-1 cells 10^6/ml, LPS 2 μg/ml, 37° C. for two hours, human TNF-α specific ELISA; read-out: Inhibition rate (%) (TNF-α inhibition rates)
Method: as §1
Analyses were carried out by measuring TNF-α production from human monocytic line THP-1 by LPS stimulation.
As a medium, an RPMI1640medium containing a fetal bovine serum(10%), L-glutamine (2 mM), 2-mercaptoethanol (50 μM), penicillin (50 units/ml) and streptomycin (50 μg/ml) was used.
With respect to cells, human monocytic line THP-1 cells cultured in the above-mentioned medium were centrifuged at 100×g for five minutes to remove supernatant and then re-suspended in the medium. With respect to LPS, LPS from S. Typhimurium was dissolved in purified water and then diluted with the medium. Test compounds were dissolved in dimethyl sulfoxide (DMSO) and then diluted with the medium.
The cells (10^6/ml), LPS (2 μg/ml) and the test compound (10^−5 M) prepared as mentioned above were mixed, and this mixture was incubated at 37° C. for two hours and then centrifuged at 1000×g […] in cultured supernatant were measured with a human TNF-α specific ELISA kit. TNF-α production was not observed in the cultured supernatant in the absence of LPS (control).
as §2, §3
A: TNF-α level in supernatant of culture medium in the absence of test compound
B: TNF-α level in supernatant of culture medium in the presence of test compound

Q: For `CC(=O)SCCN(CCc1ccccc1)C(=O)N[C@@H](Cc1ccc([N+](=O)[O-])cc1)C(=O)NCCN(C(C)C)C(C)C` [Compound No. 27-10], which inhibition at 10 µM is on record?
A: Its inhibition at 10 µM is 100%.

Q: Which inhibition at 10 µM does the source give for `CC(=O)SCCN(CCc1ccccc1)C(=O)N[C@@H](Cc1ccc(Cl)cc1)C(=O)NCCN(C)C` [Compound No. 27-17, (2S)-2-[3-[2-(Acetylthio)ethyl]-3-phenethylureido]-3-(4-chlorophenyl)-N-[2-(dimethylamino)ethyl]propionamide] here?
A: Its inhibition at 10 µM is 93.5%.

Q: For `CC(=O)SCCN(CCc1ccccc1)C(=O)N[C@@H](Cc1ccc(-c2ccccc2)c([N+](=O)[O-])c1)C(=O)NCCN(C)C` [Compound No. 27-19, (2S)-2-[3-[2-(Acetylthio)ethyl]-3-phenethylureido]-N-[2-(dimethylamino)ethyl]-3-(2-nitro-4-biphenylyl)propionamide], which inhibition at 10 µM is on record?
A: Its inhibition at 10 µM is 93.5%.

Q: Which inhibition at 10 µM does the source give for `CC(=O)SCCN(CCc1ccccc1)C(=O)N[C@@H](Cc1ccc([N+](=O)[O-])cc1)C(=O)NCCN(C)C` [Compound No. 27-41, (2S)-2-[3-[2-(Acetylthio)ethyl]-3-phenethylureido]-N-[2-(dimethylamino)ethyl]-3-(4-nitrophenyl)propionamide] here?
A: Its inhibition at 10 µM is 93.8%.

Q: Which inhibition at 10 µM does the source give for `CN(C)CCNC(=O)[C@H](Cc1ccc([N+](=O)[O-])cc1)NC(=O)N(CCSC(=O)c1ccccc1)CCc1ccccc1` [Compound No. 27-42, (2S)-2-[3-[2-(Benzoylthio)ethyl]-3-phenethylureido]-N-[2-(dimethylamino)ethyl]-3-(4-nitrophenyl)propionamide] here?
A: Its inhibition at 10 µM is 100%.

Q: With `CC(=O)SCCN(CCc1ccccc1)C(=O)N[C@@H](Cc1ccc([N+](=O)[O-])cc1)C(=O)NCCN(C)C1CCCCC1` [Compound No. 27-46, (2S)-2-[3-[2-(Acetylthio)ethyl]-3-phenethylureido]-N-[2-[(N-methyl)cyclohexylamino]ethyl]-3-(4-nitrophenyl)propionamide] as the compound, how does the inhibition at 10 µM read?
A: Its inhibition at 10 µM is 100%.

Q: With `CCN(CC)CCNC(=O)[C@H](Cc1ccc([N+](=O)[O-])cc1)NC(=O)N(CCSC(C)=O)CCc1ccccc1` [Compound No. 27-47, (2S)-2-[3-[2-(Acetylthio)ethyl]-3-phenethylureido]-N-[2-(diethylamino)ethyl]-3-(4-nitrophenyl)propionamide] as the compound, how does the inhibition at 10 µM read?
A: The inhibition at 10 µM was 100%.

Q: For `COc1ccc(C[C@H](NC(=O)N(CCSC(C)=O)CCc2ccccc2)C(=O)NCCN(C)C)cc1` [Compound No. 27-56, (2S)-2-[3-[2-(Acetylthio)ethyl]-3-phenethylureido]-N-[2-(dimethylamino)ethyl]-3-(4-methoxyphenyl)propionamide], which inhibition at 10 µM is on record?
A: Its inhibition at 10 µM is 96.9%.

Q: With `CC(=O)SCCN(CCc1ccccc1)C(=O)N[C@@H](Cc1ccc2ccccc2c1)C(=O)NCCN(C)C` [Compound No. 27-58, (2S)-2-[3-[2-(Acetylthio)ethyl]-3-phenethylureido]-N-[2-(dimethylamino)ethyl]-3-(2-naphthyl)propionamide] as the compound, how does the inhibition at 10 µM read?
A: Its inhibition at 10 µM is 100%.

Q: Which inhibition at 10 µM does the source give for `CC(=O)SCCN(CCc1ccccc1)C(=O)N[C@@H](Cc1ccc(-c2ccccc2)cc1)C(=O)NCCN(C)C` [Compound No. 27-59, (2S)-2-[3-[2-(Acetylthio)ethyl]-3-phenethylureido]-3-(4-biphenylyl)-N-[2-(dimethylamino)ethyl]propionamide] here?
A: Its inhibition at 10 µM is 100%.
